Where two headings read alike, the source gives them in different places.

For test [1], the system named is Pseudomonas putida KT2440. Nature of the test: Bacterial growth in microscale cultivation, P. putida. Type of test: cell-based. The following applies: for activity at 8 µM / activity at 80 µM / activity at 400 µM / activity at 5 µM / activity at 50 µM / activity at 500 µM / activity at 4 µM / activity at 40 µM: Pseudomonas putida; for activity at 8 µM / activity at 80 µM / activity at 400 µM / Lag Phase / activity at 4 µM / activity at 40 µM: relative to control. The protocol:
The following bacteria were cultivated in the presence of trans-chalcone derived inhibitors: Corynebacterium glutamicum ATCC13032[43], Escherichia coli K-12 MG1655[44], Pseudomonas putida KT2440[45], and Bacillus subtilis 168[46]. The growth of these bacteria was monitored in flower-well plates shaken at 1200 rpm as backscatter at 620 nm (gain 20) using a BioLector® microscale cultivation system (m2p labs, Baesweiler, Germany). For further experimental details please refer to the Supplementary Information.
medium or the appropriate minimal medium and shaken at 140 rpm overnight. For inoculation of
the main culture, cells equivalent to an optical density at 600 nm of 0.5 (C. glutamicum, E. coli,
and P. putida) or 0.25 (B. subtilis) in 800 µL medium were washed and resuspended in fresh
media. Inhibitor substances were dissolved in DMSO and added to the media to a final
Since the least polar trans-chalcone and 2’-hydroxychalcone precipitated in the growth media at
the highest concentrations, the maximal concentration of these compounds was reduced to 400
µM and 100 µM, respectively. The final backscatter at 620 nm, the growth rate (h-1), and the
duration of the lag phase of all cultures were determined in a BioLector microscale cultivation
system in comparison to negative controls supplemented with the solvent DMSO. A longer lag

For test [2], the system named is Amaranthus retroflexus. Description: In planta growth experiment, A. retroflexus. Type of test: in vivo. The following applies: shoots sprayed, 3 mM. From the text: Seeds of Amaranthus retroflexus L. (Herbiseed, Twyford, UK) and Brassica napus L. cv. Mozart (Norddeutsche Pflanzenzucht Hans-Georg Lembke KG, Holtsee, Germany) were sown in vermiculite for germination. When cotyledons were fully expanded, seedlings were transplanted into plastic pots with a volume of 0.230 L filled with a substrate containing 50% bottom ash (0–4 mm), 30% peat and 20% pumice gravel (0–4 mm). Plants were watered every other day with 0.03% Hakaphos® Grün solution (Compo Expert GmbH, Münster, Germany) by sub-irrigation. Plants were grown in a climate chamber at 22 °C/20 °C day/night temperature and a day/night length of 16 h/8 h. Relative humidity was adjusted to 70% and light intensity was 320 μmol m^−2 s^−1 PAR (Photosynthetically Active Radiation) at plant level.
When seedlings reached the two-leaf growth stage, plant shoots were sprayed from the top with treatment solutions using spray bottles with a spraying angle of 35° (10 ml, neoLab Migge Laborbedarf-Vertriebs GmbH, Heidelberg, Germany). Treatment solutions were applied from a height of 8.5 cm above the pots. Each pot was sprayed once with a solution volume of 0.135 ml. Treatment solutions contained 2.4% (v/v) DMSO (dimethylsulfoxide, Duchefa Biochemie, Haarlem, the Netherlands), 0.1% (v/v) Tween® and the respective compound at a concentration of 3 mM. The control treatment contained 2.4% (v/v) DMSO, and 0.1% (v/v) Tween20. Further details are given in the Supplementary Information. […]
Experimental design and assessments of in planta experiments
We tested eleven compounds in a first experiment. In a follow-up experiment we tested selected […]
chalcone. Each treatment was repeated 12 times, except for oilseed rape in the second experiment (n=10). Pots were arranged in the growth chamber according to a fully randomized design. Initial growth of the second leaf of A. retroflexus plants was monitored by aquiring images of each plant from above from day zero to day two after treatment. Images were taken […]
from a fixed distance at 90° view angle using the camera Canon EOS 70D equipped with a Canon EF 14 mm/2.8 L II USM lens. Leaf area of single leaves was measured using the ImageJ software31, by drawing the leaf contours using a drawing tablet (Cintiq 22HD, Wacom Europe GmbH, Krefeld, Germany). Conversion of pixel to cm was achieved by using a target of known size inside the image. Six days after the treatment, half of the plants were harvested. Leaf area was assessed using a leaf area meter (LI3100C Area Meter, LI-Cor, Lincoln, Nebraska, USA) and samples were oven-dried at 65°C for seven days to obtain dry weight . Thirteen days after the treatment, this procedure was repeated with the second half of plants.
Chlorophyll fluorescence measurements […]
6 mm leaf discs were cut out of the second leaf and immediately placed into 96-well-plates filled with 300 µL 0.125 % Hoagland’s solution with 1 mM MES-KOH (MES-monohydrate, Merck, Darmstadt, Germany) buffered to a pH of 6.5. The treatment solution contained 1.6 % (v/v) DMSO, 0.1 % (v/v) Tween® 20 and 2',3',4',3,4-Pentahydroxychalcone at a concentration of 2 mM. The control treatment contained 1.6 % (v/v) DMSO, 0.1 % (v/v) Tween® 20. Each leaf disc was treated with 1.5 µL solution placed on top of the leaf discs. Plates were sealed with Parafilm and placed into a climate cabinet with 12h/12h day/night-length and a temperature of 22°C at a light intensity of 130 µmol m-2 s-1. 96 hours after treatment, chlorophyll fluorescence measurements were performed on leaf discs using an Imaging PAM M-Series fluorescence camera (Heinz Walz GmbH, Effeltrich, Germany). Leaf discs were dark adapted for 30 minutes, minimum and maximum chlorophyll fluorescence were obtained and leaf discs were illuminated for 30 minutes

Where [3] appears, read: KT2440, complex medium, 400 µM, read-out: Final Backscatter.
Setting [4] is: KT2440, complex medium, 400 µM, read-out: Growth rate.
Setting [5] is: KT2440, minimal medium, 400 µM, read-out: Final Backscatter.
Where [6] appears, read: KT2440, minimal medium, 400 µM, read-out: Growth rate.
[7] abbreviates: KT2440, complex medium, 4 µM, read-out: Final Backscatter.
Where [8] appears, read: KT2440, complex medium, 4 µM, read-out: Growth rate.
Setting [9] is: KT2440, complex medium, 40 µM, read-out: Final Backscatter.
Where [10] appears, read: KT2440, complex medium, 40 µM, read-out: Growth rate.
[11] abbreviates: KT2440, minimal medium, 4 µM, read-out: Final Backscatter.
Setting [12] is: KT2440, minimal medium, 4 µM, read-out: Growth rate.
Where [13] appears, read: KT2440, minimal medium, 40 µM, read-out: Final Backscatter.
Setting [14] is: KT2440, minimal medium, 40 µM, read-out: Growth rate.

Regarding `O=C(/C=C/c1ccccc1)c1ccccc1` [Compound 1, trans-Chalcone], the activity at 8 µM in test [1] (KT2440, complex medium, 8 µM, read-out: Final Backscatter) amounted to 95.3%; in test [1] (KT2440, complex medium, 8 µM, read-out: Growth rate), 98.4%; in test [1] (KT2440, minimal medium, 8 µM, read-out: Final Backscatter), 94.4%; in test [1] (KT2440, minimal medium, 8 µM, read-out: Growth rate) it was 112%. In addition, the activity at 80 µM in test [1] (KT2440, complex medium, 80 µM, read-out: Final Backscatter) was determined as 96.7%; in test [1] (KT2440, complex medium, 80 µM, read-out: Growth rate), 100%; in test [1] (KT2440, minimal medium, 80 µM, read-out: Final Backscatter), 94.2%; in test [1] (KT2440, minimal medium, 80 µM, read-out: Growth rate), 113%. The activity at 400 µM in test [1] (setting [3]) was 97.3%; in test [1] (setting [4]), 103%; in test [1] (setting [5]), 100%; in test [1] (setting [6]), 119%. For the same compound, the “Lag Phase” value was 100,6% in test [1] (complex medium, 8 µM); 101,8% in test [1] (complex medium, 80 µM); 103,0% in test [1] (complex medium, 400 µM); 98,9% in test [1] (minimal medium, 8 µM); 99,3% in test [1] (minimal medium, 80 µM); 98,1% in test [1] (minimal medium, 400 µM). Besides, the Influence on plants result in test [2] is listed as “No”.
In the case of `O=C(/C=C/c1ccccc1)c1ccccc1O` [Compound 2, 2′-Hydroxychalcone], the activity at 5 µM in test [1] (KT2440, read-out: Final Backscatter, complex medium, 5 µM, relative to control) is 98%; in test [1] (KT2440, read-out: Final Backscatter, minimal medium, 5 µM, relative to control) it was 96.6%; in test [1] (KT2440, read-out: Growth rate, complex medium, 5 µM, relative to control), 103%; in test [1] (KT2440, read-out: Growth rate, minimal medium, 5 µM, relative to control), 96%. For the same compound, the activity at 50 µM in test [1] (KT2440, read-out: Final Backscatter, complex medium, 50 µM, relative to control) was found to be 101%; in test [1] (KT2440, read-out: Final Backscatter, minimal medium, 50 µM, relative to control), 98%; in test [1] (KT2440, read-out: Growth rate, complex medium, 50 µM, relative to control), 102%; in test [1] (KT2440, read-out: Growth rate, minimal medium, 50 µM, relative to control), 99.3%. Besides, the activity at 500 µM in test [1] (KT2440, read-out: Final Backscatter, complex medium, 500 µM, relative to control) turned out to be 102%; in test [1] (KT2440, read-out: Final Backscatter, minimal medium, 500 µM, relative to control), 111%; in test [1] (KT2440, read-out: Growth rate, complex medium, 500 µM, relative to control) it was 189%; in test [1] (KT2440, read-out: Growth rate, minimal medium, 500 µM, relative to control), 153%. Besides, the “Lag Phase” value in test [1] (complex medium, 5 µM) was 101,0%; in test [1] (complex medium, 50 µM), 102,6%; in test [1] (complex medium, 500 µM), 110,8%; in test [1] (minimal medium, 5 µM), 100,0%; in test [1] (minimal medium, 50 µM) it was 100,6%; in test [1] (minimal medium, 500 µM), 100,0%. Further, the Influence on plants result in test [2] is reported as “No”.
Regarding `O=C(/C=C/c1ccc(O)cc1)c1ccccc1O` [Compound 3, 2′,4-Dihydroxychalcone], the activity at 4 µM is 99.6% in test [1] (setting [7]), 103% in test [1] (setting [8]), 97.4% in test [1] (setting [11]) and 95.3% in test [1] (setting [12]). Further, the activity at 40 µM in test [1] (setting [9]) came to 103%; in test [1] (setting [10]) it was 106%; in test [1] (setting [13]) it was 101%; in test [1] (setting [14]), 97.1%. Also, the activity at 400 µM in test [1] (setting [3]) came out at 99.5%; in test [1] (setting [4]) it was 108%; in test [1] (setting [5]) it was 110%; in test [1] (setting [6]) it was 106%. In addition, the “Lag Phase” value is recorded as 97,7% in test [1] (complex medium, 4 µM); 98,5% in test [1] (complex medium, 40 µM); 98,5% in test [1] (complex medium, 400 µM); 102,8% in test [1] (minimal medium, 4 µM); 101,6% in test [1] (minimal medium, 40 µM); 103,2% in test [1] (minimal medium, 400 µM). Besides, the Influence on plants result in test [2] was “No”.
`O=C(/C=C/c1ccccc1)c1ccc(O)cc1O` [Compound 4, 2′,4′-Dihydroxychalcone]: the lag phase result in test [1] (400 μM) is listed as “slight increase in the lag phase”. The activity at 4 µM is 97.8% in test [1] (setting [7]), 101% in test [1] (setting [8]), 102% in test [1] (setting [11]) and 94.1% in test [1] (setting [12]). The activity at 40 µM turned out to be 102% in test [1] (setting [9]), 100% in test [1] (setting [10]), 102% in test [1] (setting [13]) and 98.3% in test [1] (setting [14]). The activity at 400 µM stood at 100% in test [1] (setting [3]), 101% in test [1] (setting [4]), 107% in test [1] (setting [5]) and 93.9% in test [1] (setting [6]). In addition, the “Lag Phase” value is reported as 105,0% in test [1] (complex medium, 4 µM); 106,6% in test [1] (complex medium, 40 µM); 123,2% in test [1] (complex medium, 400 µM); 108,7% in test [1] (minimal medium, 4 µM); 108,3% in test [1] (minimal medium, 40 µM); 97,7% in test [1] (minimal medium, 400 µM). The Influence on plants entry in test [2] is recorded as “No”.
